# Measured values: ChEMBL document CHEMBL5113408, “Design, synthesis and antitumour activity of novel 5(6)-amino-benzimidazolequinones containing a fused morpholine” (Eur J Med Chem, 2022)
# How the values were obtained:
# Format in all cases: functional, cell-based
# ECa-109 cell line = experiment: Antiproliferative activity against human EC109 cells assessed as inhibition of cell growth by SRB assay
# MGC-803 = experiment: Antiproliferative activity against human MGC-803 cells assessed as inhibition of cell growth by SRB assay
# HeLa = experiment: Antiproliferative activity against human HeLa cells assessed as inhibition of cell growth by SRB assay
# MCF7 = experiment: Antiproliferative activity against human MCF7 cells assessed as inhibition of cell growth by SRB assay
SMILES,IC50 (ECa-109 cell line),IC50 (MGC-803),IC50 (HeLa),IC50 (MCF7)
Cc1ccc(NC2=CC(=O)c3nc4n(c3C2=O)[C@H]2OC[C@@H](O)[C@H]2OC4)cc1,3.48 µM,1.42 µM,3.86 µM,1.66 µM
CCOc1ccccc1NC1=CC(=O)c2c(nc3n2[C@H]2OC[C@@H](O)[C@H]2OC3)C1=O,4.32 µM,2.83 µM,8.3 µM,> 4 µM
CCc1ccc(NC2=CC(=O)c3c(nc4n3C[C@@H]([C@H](O)CO)OC4)C2=O)cc1,4.54 µM,3.69 µM,4.59 µM,6.57 µM
CCCN(CCC)C1=CC(=O)c2c(nc3n2[C@H]2OC[C@@H](O)[C@H]2OC3)C1=O,> 16 µM,> 16 µM,> 16 µM,> 16 µM
O=C1C(Nc2cccc(F)c2)=CC(=O)c2c1nc1n2C[C@@H]([C@H](O)CO)OC1,6.56 µM,3.04 µM,> 16 µM,5.89 µM
O=C1C(NC2CCCCC2)=CC(=O)c2c1nc1n2[C@H]2OC[C@@H](O)[C@H]2OC1,> 16 µM,> 8 µM,> 16 µM,> 16 µM
COc1ccccc1NC1=CC(=O)c2c(nc3n2C[C@@H]([C@H](O)CO)OC3)C1=O,7.64 µM,4.42 µM,8.97 µM,6.81 µM
O=C1C=C(Nc2ccc(C(F)(F)F)cc2)C(=O)c2c1nc1n2C[C@@H]([C@H](O)CO)OC1,6.73 µM,6.52 µM,6.09 µM,11.3 µM
O=C1C=C(Nc2ccccc2F)C(=O)c2c1nc1n2[C@H]2OC[C@@H](O)[C@H]2OC1,2.76 µM,2.08 µM,5.12 µM,3.64 µM
Cc1ccc(NC2=CC(=O)c3c(nc4n3C[C@@H]([C@H](O)CO)OC4)C2=O)cc1,5.08 µM,4.11 µM,5.86 µM,7.41 µM
O=C1C(Nc2ccc(C(F)(F)F)cc2)=CC(=O)c2c1nc1n2[C@H]2OC[C@@H](O)[C@H]2OC1,2.25 µM,1.86 µM,8.92 µM,> 4 µM
O=C1C=C(NC2CCCCC2)C(=O)c2c1nc1n2[C@H]2OC[C@@H](O)[C@H]2OC1,> 16 µM,> 8 µM,> 16 µM,> 8 µM
O=C1C(N2CCCC2)=CC(=O)c2c1nc1n2[C@H]2OC[C@@H](O)[C@H]2OC1,> 16 µM,> 16 µM,> 16 µM,> 16 µM
O=C1C(Nc2cccc(Cl)c2)=CC(=O)c2c1nc1n2[C@H]2OC[C@@H](O)[C@H]2OC1,3.08 µM,1.53 µM,7.97 µM,2.97 µM
CCc1ccc(NC2=CC(=O)c3nc4n(c3C2=O)[C@H]2OC[C@@H](O)[C@H]2OC4)cc1,3.08 µM,1.29 µM,3.99 µM,0.96 µM
COc1ccc(NC2=CC(=O)c3nc4n(c3C2=O)C[C@@H]([C@H](O)CO)OC4)cc1,> 16 µM,8.9 µM,7.15 µM,> 16 µM
O=C1C(Nc2ccccc2)=CC(=O)c2c1nc1n2C[C@@H]([C@H](O)CO)OC1,8.38 µM,4.67 µM,9.01 µM,6.91 µM
CCOc1ccc(NC2=CC(=O)c3nc4n(c3C2=O)C[C@@H]([C@H](O)CO)OC4)cc1,9.88 µM,4.31 µM,4.12 µM,11.3 µM
O=C1C=C(NC2CCCC2)C(=O)c2c1nc1n2[C@H]2OC[C@@H](O)[C@H]2OC1,> 16 µM,> 8 µM,> 16 µM,> 16 µM
COc1ccccc1NC1=CC(=O)c2c(nc3n2[C@H]2OC[C@@H](O)[C@H]2OC3)C1=O,> 4 µM,1.67 µM,7.46 µM,6.58 µM
COc1cccc(NC2=CC(=O)c3c(nc4n3[C@H]3OC[C@@H](O)[C@H]3OC4)C2=O)c1,3.34 µM,1.79 µM,> 8 µM,3.83 µM
CCOc1ccc(NC2=CC(=O)c3nc4n(c3C2=O)[C@H]2OC[C@@H](O)[C@H]2OC4)cc1,3.21 µM,1.11 µM,3.11 µM,1.43 µM
O=C1C=C(Nc2ccc(I)cc2)C(=O)c2c1nc1n2[C@H]2OC[C@@H](O)[C@H]2OC1,2.3 µM,1.4 µM,4.07 µM,2.23 µM
COc1cccc(NC2=CC(=O)c3nc4n(c3C2=O)C[C@@H]([C@H](O)CO)OC4)c1,> 16 µM,9.26 µM,8.41 µM,> 16 µM
O=C1C(Nc2ccc(I)cc2)=CC(=O)c2c1nc1n2C[C@@H]([C@H](O)CO)OC1,3.14 µM,2.46 µM,5.51 µM,5.11 µM
O=C1C(Nc2ccccc2)=CC(=O)c2c1nc1n2[C@H]2OC[C@@H](O)[C@H]2OC1,3.56 µM,1.83 µM,> 8 µM,> 4 µM
Cc1ccc(NC2=CC(=O)c3nc4n(c3C2=O)C[C@@H]([C@H](O)CO)OC4)cc1,7.98 µM,4.82 µM,3.9 µM,10.6 µM
CCCc1ccc(NC2=CC(=O)c3c(nc4n3[C@H]3OC[C@@H](O)[C@H]3OC4)C2=O)cc1,> 4 µM,1.92 µM,6.03 µM,> 4 µM
O=C1C=C(Nc2ccccc2)C(=O)c2c1nc1n2[C@H]2OC[C@@H](O)[C@H]2OC1,4.97 µM,1.73 µM,5.62 µM,> 4 µM
O=C1C(Nc2ccccc2F)=CC(=O)c2c1nc1n2C[C@@H]([C@H](O)CO)OC1,5.51 µM,3.74 µM,> 16 µM,5.15 µM
